From US5194371A, “Production of pradimicin antibiotics” (Bristol-Myers Squibb Company, priority 1991, dated 1993) come the findings set out here.

The subject of one data set is strain AB 1236. The data set is described as follows: Antibiotic susceptibility of strain AB 1236 (antibiotic disks). Type of data set: cell-based, Actinomadura sp. AB 1236. The conditions noted are these: 37° C., 4 days. On the procedure:
Antibiotic susceptibility of strain AB 1236 was tested using antibiotic disks (Tridisk, Eiken Chemical Co., Ltd.). The disks were placed onto the surface of yeast-glucose-malt agar (yeast extract 0.1%, glucose 1%, malt extract 0.1%, CaCl2.2H2 O 0.05% and agar 1.5%) which had been seeded by strain AB 1236 (4% inoculum), and the plates were then incubated at 37° C. for 4 days. Strain AB 1236 was resistant to 50 μg of fosfomycin and 300 U of polymixin B, and susceptible to 20 U of ampicillin, 1 μg of clavulanic acid, 2 μg of ticarcillin, 10 μg of cephalexin, 30 μg of tetracycline, 10 μg of chloramphenicol, 0.5 μg of erythromycin, 2 μg of josamycin, 2 μg of lincomycin, 5 μg of kanamycin, 5 μg of gentamicin, 5 μg of tobramycin, 2 μg of nalidixic acid, 2 μg of norfloxacin and 50 U of colistin.

The next data set concerns Candida albicans A9540. The data set is described as follows: In vivo efficacy against C. albicans A9540 systemic infection in mice. The conditions noted are these: A9540, iv, 504 h, i.v., single dose immediately after challenge, survival on day 21, read-out: PD50 (median protective dose). Further details: species or system male ICR mice infected with Candida albicans. The procedure:
The in vivo efficacy of BMY-28960 was evaluated against Candida albicans A9540 systemic infection in male ICR mice (20-24 g body weight). Five mice are used for each dose level. Mice were challenged intravenously with 10 times the median lethal dose of the pathogen suspended in saline and BMY-28960 was intravenously administered once immediately after the challenge. The median protective dose (PD50) was calculated from survival rates recorded on day 21.

Data set [1] in a line: Tolerability following intravenous administration in ICR mice. Type of data set: in vivo. The conditions noted are these: i.v., up to 600 mg/kg.

`CCn1cc(C(=O)O)c(=O)c2cc(F)c(N3CCNCC3)cc21` [norfloxacin]: in the data set with strain AB 1236 (disk 2 μg), the “Antibiotic susceptibility of strain AB 1236” value (“Antibiotic susceptibility” below) is “susceptible”.
On to `O=C(O)[C@H]1/C(=C/CO)O[C@@H]2CC(=O)N21` [clavulanic acid], for which the “Antibiotic susceptibility” value in the data set on strain AB 1236 (disk 1 μg) is listed as “susceptible”.
For the molecule `CCC[C@@H]1C[C@@H](C(=O)N[C@@H]([C@H]2O[C@H](SC)[C@H](O)[C@@H](O)[C@H]2O)[C@@H](C)O)N(C)C1` [lincomycin], the “Antibiotic susceptibility” value in the data set with strain AB 1236 (disk 2 μg) is given as “susceptible”.
Still for that read-out and setting: the same measure for `CC1(C)S[C@@H]2[C@H](NC(=O)[C@H](C(=O)O)c3ccsc3)C(=O)N2[C@H]1C(=O)O` [ticarcillin]: “susceptible”.
For `CN(C)C1C(=O)C(C(N)=O)=C(O)C2(O)C(=O)C3=C(O)c4c(O)cccc4C(C)(O)C3CC12` (stereo not shown) [tetracycline], in the data set on strain AB 1236 (disk 30 μg), the “Antibiotic susceptibility” value was “susceptible”.
As to `C[C@@H]1O[C@@H]1P(=O)(O)O` [fosfomycin], in the data set on strain AB 1236 (disk 50 μg), the “Antibiotic susceptibility” value is recorded as “resistant”.
As for `CC[C@H]1OC(=O)[C@H](C)[C@@H](O[C@H]2C[C@@](C)(OC)[C@@H](O)[C@H](C)O2)[C@H](C)[C@@H](O[C@@H]2O[C@H](C)C[C@H](N(C)C)[C@H]2O)[C@](C)(O)C[C@@H](C)C(=O)[C@H](C)[C@@H](O)[C@]1(C)O` [erythromycin], the “Antibiotic susceptibility” value with strain AB 1236 (disk 0.5 μg) was “susceptible”.
In the case of `COc1cc(O)c2c(c1)C(=O)c1c(cc3c(c1O)-c1c(cc(C)c(C(=O)N[C@H](CO)C(=O)O)c1O)[C@H](O[C@@H]1O[C@H](C)[C@H](O)[C@H](O[C@@H]4OC[C@@H](O)[C@H](O)[C@H]4O)[C@H]1O)[C@H]3O)C2=O` [BMY-28960, 4'-deamino-4'-axial-hydroxypradimicin FA-2], the ED50 with Candida albicans A9540 turned out to be 6.7 mg/kg. For the same molecule, the “Lethality and apparent side effects” value in data set [1] was “neither lethality nor apparent side effects were noted”. In addition, the Solubility in solvent result in “Solubility in solvent” (Dimethyl sulfoxide, N,N-dimethylformamide and alkaline water) is “Soluble”; in the data set “Solubility in solvent” (Ethanol, methanol and acetone) it was “Slightly soluble”; in the data set “Solubility in solvent” (Ethyl acetate, benzene, chloroform, acidic water, etc.), “Isoluble”.
As for `NC[C@H]1O[C@H](O[C@H]2[C@H](O)[C@@H](O[C@H]3O[C@H](CO)[C@@H](O)[C@H](N)[C@H]3O)[C@H](N)C[C@@H]2N)[C@H](N)C[C@@H]1O` [tobramycin], the “Antibiotic susceptibility” value in the data set with strain AB 1236 (disk 5 μg) is on record as “susceptible”.
Regarding `OC(Cn1cncn1)(Cn1cncn1)c1ccc(F)cc1F` [Fluconazole], in the data set on Candida albicans A9540, the ED50 was greater than 50 mg/kg.
In the case of `NC[C@H]1O[C@H](O[C@H]2[C@H](O)[C@@H](O[C@H]3O[C@H](CO)[C@@H](O)[C@H](N)[C@H]3O)[C@H](N)C[C@@H]2N)[C@H](O)[C@@H](O)[C@@H]1O` [kanamycin], the “Antibiotic susceptibility” value in the data set on strain AB 1236 (disk 5 μg) is reported as “susceptible”.
In the case of `CN[C@@H]1[C@H](O[C@@H]2OC[C@@H](O)[C@H](O)[C@H]2O)[C@@H](O)[C@H](O[C@H]2c3cc(C)c(C(=O)N[C@H](C)C(=O)O)c(O)c3-c3c(cc4c(c3O)C(=O)c3cc(OC)cc(O)c3C4=O)[C@@H]2O)O[C@@H]1C` [Pradimicin A], the ED50 with Candida albicans A9540 was determined as 10 mg/kg.
Turning to `CC1(C)S[C@@H]2[C@H](NC(=O)[C@H](N)c3ccccc3)C(=O)N2[C@H]1C(=O)O` [ampicillin], the “Antibiotic susceptibility” value in the data set with strain AB 1236 (disk 20 U) is on record as “susceptible”.
Consider `O=C(N[C@H](CO)[C@H](O)c1ccc([N+](=O)[O-])cc1)C(Cl)Cl` [chloramphenicol], for which the “Antibiotic susceptibility” value with strain AB 1236 (disk 10 μg) was “susceptible”.
As for josamycin, the “Antibiotic susceptibility” value in the data set on strain AB 1236 (disk 2 μg) is recorded as “susceptible”.
`C[C@@H]1[C@H](O)[C@@H](C)/C=C/C=C/C=C/C=C/C=C/C=C/C=C/[C@H](O[C@@H]2O[C@H](C)[C@@H](O)[C@H](N)[C@@H]2O)C[C@@H]2O[C@](O)(C[C@@H](O)C[C@@H](O)[C@H](O)CC[C@@H](O)C[C@@H](O)CC(=O)O[C@H]1C)C[C@H](O)[C@H]2C(=O)O` [Amphotericin B]: in the data set on Candida albicans A9540, the ED50 stood at 0.31 mg/kg.
In the case of `CC1=C(C(=O)O)N2C(=O)[C@@H](NC(=O)[C@H](N)c3ccccc3)[C@H]2SC1` [cephalexin], in the data set on strain AB 1236 (disk 10 μg), the “Antibiotic susceptibility” value is on record as “susceptible”.
In the case of gentamicin, the “Antibiotic susceptibility” value in the data set with strain AB 1236 (disk 5 μg) was “susceptible”.
On to polymixin B, for which, in the data set with strain AB 1236 (disk 300 U), the “Antibiotic susceptibility” value is “resistant”.
colistin: the “Antibiotic susceptibility” value in the data set with strain AB 1236 (disk 50 U) is given as “susceptible”.
Consider `CCn1cc(C(=O)O)c(=O)c2ccc(C)nc21` [nalidixic acid], for which the “Antibiotic susceptibility” value in the data set with strain AB 1236 (disk 2 μg) is “susceptible”.
